Results taken from patent US20250353891A1 (MEDIMMUNE LIMITED, priority 2022, published 2025).
Starred links: 1 amine or outer side, 2 acyl side, 3 side chain; linkers in the order of their positions; H or OH if unused. Non-standard residues stand in square brackets, D forms with d. Residues, ends and D or L forms follow the SMILES beside them. Groups on a side chain read outwards from the residue. *: point of attachment. γGlu = O=C(O)[C@H](CCC(=O)[*:2])N[*:1]; Stearoyl = CCCCCCCCCCCCCCCCCC(=O)*; Palmitoyl = CCCCCCCCCCCCCCCC(=O)*; αMeF = C[C@](N)(Cc1ccccc1)C(=O)O; Myristoyl = CCCCCCCCCCCCCC(=O)*; αMeS = C[C@](N)(CO)C(=O)O; PEG2 = NCCOCCOCCC(=O)O; Aib = CC(C)(N)C(=O)O

Experiments:
[1] = molecular target: human glucagon receptor (hGCGR) (Homo sapiens, UniProt P47871); assay: cAMP production (HTRF) in CHO cells expressing hGCGR; assay type: cell-based; parameters: expressed in transfected cells; conditions: Table 6, peptides modified at position 17; cAMP in CHO hGCGR cells; geometric mean; read-out: hGluc-R EC50
human glucagon receptor (hGCGR), sequence (P47871 26-477): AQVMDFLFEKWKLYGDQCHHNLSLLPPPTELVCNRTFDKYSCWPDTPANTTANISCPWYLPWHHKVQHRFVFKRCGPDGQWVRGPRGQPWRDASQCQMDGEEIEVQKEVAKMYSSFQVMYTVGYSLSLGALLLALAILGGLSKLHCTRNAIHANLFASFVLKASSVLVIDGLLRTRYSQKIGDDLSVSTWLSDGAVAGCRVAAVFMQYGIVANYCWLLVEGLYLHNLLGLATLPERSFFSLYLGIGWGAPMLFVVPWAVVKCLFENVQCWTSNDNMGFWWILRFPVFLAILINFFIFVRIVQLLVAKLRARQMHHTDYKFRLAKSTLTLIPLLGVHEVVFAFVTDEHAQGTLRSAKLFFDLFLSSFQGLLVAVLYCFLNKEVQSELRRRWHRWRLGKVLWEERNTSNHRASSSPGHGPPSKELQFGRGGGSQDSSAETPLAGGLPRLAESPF
Method in brief: (§1)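 Cells were resuspended in assay buffer at batch-optimized density, typically 1×10^5 cells/mL for hGLP-1R and 2×10^5 cells/mL for hGCGR. After 30 min incubation at room temperature with compound, cAMP was measured by two-step HTRF. EC50 values came from 4-parameter logistic fits of % Delta F.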

[2] = molecular target: human GLP-1 receptor (hGLP-1R) (Homo sapiens, UniProt P43220); assay: cAMP production (HTRF) in CHO cells expressing hGLP-1R; assay type: cell-based; parameters: expressed in transfected cells; conditions: for % Relative Potency Ratio: Table 6, % GLP-1R activity relative to GLP-1 / % GlucR activity relative to glucagon; for EC50: Table 6, peptides modified at position 17, cAMP in CHO hGLP-1R cells, geometric mean, read-out: hGLP-1R EC50
human GLP-1 receptor (hGLP-1R), sequence (P43220 24-463): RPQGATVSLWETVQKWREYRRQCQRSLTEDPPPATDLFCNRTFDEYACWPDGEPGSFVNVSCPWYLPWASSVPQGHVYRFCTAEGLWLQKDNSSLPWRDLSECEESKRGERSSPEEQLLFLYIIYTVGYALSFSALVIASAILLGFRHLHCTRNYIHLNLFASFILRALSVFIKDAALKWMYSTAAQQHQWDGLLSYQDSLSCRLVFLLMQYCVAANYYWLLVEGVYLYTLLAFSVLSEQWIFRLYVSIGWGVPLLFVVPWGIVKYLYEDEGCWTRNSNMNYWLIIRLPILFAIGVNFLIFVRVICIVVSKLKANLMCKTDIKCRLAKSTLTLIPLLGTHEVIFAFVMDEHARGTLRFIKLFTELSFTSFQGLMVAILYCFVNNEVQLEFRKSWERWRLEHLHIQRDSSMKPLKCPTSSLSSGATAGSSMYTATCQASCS
Method in brief: as §1

SMILES | EC50 [1] [pM] | % Relative Potency Ratio [2] | EC50 [2] [pM]
CCCCCCCCCCCCCCCC(=O)N[C@@H](CCC(=O)N[C@@H](CCC(=O)NCCOCCOCCC(=O)NCCOCCOCCC(=O)NCCCC[C@H](NC(=O)[C@H](CO)NC(=O)[C@H](CC(=O)O)NC(=O)[C@H](CC(C)C)NC(=O)[C@@H](NC(=O)[C@H](CCCCN)NC(=O)[C@H](CO)NC(=O)[C@@H](NC(=O)[C@H](CC(=O)O)NC(=O)[C@H](CO)NC(=O)[C@@H](NC(=O)[C@](C)(Cc1ccccc1)NC(=O)[C@H](CO)NC(=O)CNC(=O)[C@H](CCC(N)=O)NC(=O)C(C)(C)NC(=O)[C@@H](N)Cc1c[nH]cn1)[C@@H](C)O)C(C)C)[C@@H](C)CC)C(=O)N[C@@H](C)C(=O)N[C@@H](C)C(=O)N[C@@H](CCC(N)=O)C(=O)N[C@@H](CC(=O)O)C(=O)N[C@@](C)(Cc1ccccc1)C(=O)N[C@H](C(=O)N[C@@H](CCC(N)=O)C(=O)NC(C)(C)C(=O)N[C@H](C(=O)N[C@H](C(=O)N[C@@H](CC(N)=O)C(=O)N[C@H](C(N)=O)[C@@H](C)O)[C@@H](C)CC)[C@@H](C)CC)C(C)C)C(=O)O)C(=O)O [Peptide 125] (H-H[Aib]QGS[αMeF]TSDVSKILDSK([PEG2-PEG2-γGlu-γGlu-Palmitoyl])AAQD[αMeF]VQ[Aib]IINT-NH2; N-terminus assumed) | 6.68 | 23.0 | –
CCCCCCCCCCCCCCCCCC(=O)N[C@@H](CCC(=O)NCCOCCOCCC(=O)NCCOCCOCCC(=O)NCCCC[C@H](NC(=O)[C@H](CO)NC(=O)[C@H](CC(=O)O)NC(=O)[C@H](CC(C)C)NC(=O)[C@@H](NC(=O)[C@H](CCCCN)NC(=O)[C@H](CO)NC(=O)[C@@H](NC(=O)[C@H](CC(=O)O)NC(=O)[C@H](CO)NC(=O)[C@@H](NC(=O)[C@](C)(Cc1ccccc1)NC(=O)[C@H](CO)NC(=O)CNC(=O)[C@H](CCC(N)=O)NC(=O)C(C)(C)NC(=O)[C@@H](N)Cc1c[nH]cn1)[C@@H](C)O)C(C)C)[C@@H](C)CC)C(=O)N[C@@H](C)C(=O)N[C@@H](C)C(=O)N[C@@H](CCC(N)=O)C(=O)N[C@@H](CC(=O)O)C(=O)N[C@@](C)(Cc1ccccc1)C(=O)N[C@H](C(=O)N[C@@H](CCC(N)=O)C(=O)NC(C)(C)C(=O)N[C@H](C(=O)N[C@H](C(=O)N[C@@H](CC(N)=O)C(=O)N[C@H](C(N)=O)[C@@H](C)O)[C@@H](C)CC)[C@@H](C)CC)C(C)C)C(=O)O [Peptide 127] (H-H[Aib]QGS[αMeF]TSDVSKILDSK([PEG2-PEG2-γGlu-Stearoyl])AAQD[αMeF]VQ[Aib]IINT-NH2; N-terminus assumed) | 12.6 | 25.1 | –
CCCCCCCCCCCCCCCC(=O)N[C@@H](CCC(=O)NCCOCCOCCC(=O)NCCOCCOCCC(=O)NCCCC[C@H](NC(=O)[C@H](CO)NC(=O)[C@H](CC(=O)O)NC(=O)[C@H](CC(C)C)NC(=O)[C@@H](NC(=O)[C@H](CCCCN)NC(=O)[C@H](CO)NC(=O)[C@@H](NC(=O)[C@H](CC(=O)O)NC(=O)[C@H](CO)NC(=O)[C@@H](NC(=O)[C@](C)(Cc1ccccc1)NC(=O)[C@H](CO)NC(=O)CNC(=O)[C@H](CCC(N)=O)NC(=O)C(C)(C)NC(=O)[C@@H](N)Cc1c[nH]cn1)[C@@H](C)O)C(C)C)[C@@H](C)CC)C(=O)N[C@@H](C)C(=O)N[C@@H](C)C(=O)N[C@@H](CCC(N)=O)C(=O)N[C@@H](CC(=O)O)C(=O)N[C@@](C)(Cc1ccccc1)C(=O)N[C@H](C(=O)N[C@@H](CCC(N)=O)C(=O)NC(C)(C)C(=O)N[C@H](C(=O)N[C@H](C(=O)N[C@@H](CC(N)=O)C(=O)N[C@H](C(N)=O)[C@@H](C)O)[C@@H](C)CC)[C@@H](C)CC)C(C)C)C(=O)O [Peptide 128] (H-H[Aib]QGS[αMeF]TSDVSKILDSK([PEG2-PEG2-γGlu-Palmitoyl])AAQD[αMeF]VQ[Aib]IINT-NH2; N-terminus assumed) | 4.69 | 11.8 | –
CCCCCCCCCCCCCC(=O)N[C@@H](CCC(=O)NCCOCCOCCC(=O)NCCOCCOCCC(=O)NCCCC[C@H](NC(=O)[C@H](CO)NC(=O)[C@H](CC(=O)O)NC(=O)[C@H](CC(C)C)NC(=O)[C@@H](NC(=O)[C@H](CCCCN)NC(=O)[C@H](CO)NC(=O)[C@@H](NC(=O)[C@H](CC(=O)O)NC(=O)[C@H](CO)NC(=O)[C@@H](NC(=O)[C@](C)(Cc1ccccc1)NC(=O)[C@H](CO)NC(=O)CNC(=O)[C@H](CCC(N)=O)NC(=O)C(C)(C)NC(=O)[C@@H](N)Cc1c[nH]cn1)[C@@H](C)O)C(C)C)[C@@H](C)CC)C(=O)N[C@@H](C)C(=O)N[C@@H](C)C(=O)N[C@@H](CCC(N)=O)C(=O)N[C@@H](CC(=O)O)C(=O)N[C@@](C)(Cc1ccccc1)C(=O)N[C@H](C(=O)N[C@@H](CCC(N)=O)C(=O)NC(C)(C)C(=O)N[C@H](C(=O)N[C@H](C(=O)N[C@@H](CC(N)=O)C(=O)N[C@H](C(N)=O)[C@@H](C)O)[C@@H](C)CC)[C@@H](C)CC)C(C)C)C(=O)O [Peptide 129] (H-H[Aib]QGS[αMeF]TSDVSKILDSK([PEG2-PEG2-γGlu-Myristoyl])AAQD[αMeF]VQ[Aib]IINT-NH2) | 4.1 | 17.6 | –

Other lines, results leading:

EC50 [1] [pM] | % Relative Potency Ratio [2] | EC50 [2] [pM] | SMILES
32.9 | 59.9 | 1.09 | CCCCCCCCCCCCCCCCCC(=O)N[C@@H](CCC(=O)N[C@@H](CCC(=O)NCCOCCOCCC(=O)NCCOCCOCCC(=O)NCCCC[C@H](NC(=O)[C@H](CO)NC(=O)[C@H](CC(=O)O)NC(=O)[C@H](CC(C)C)NC(=O)[C@@H](NC(=O)[C@H](CCCCN)NC(=O)[C@H](CO)NC(=O)[C@@H](NC(=O)[C@H](CC(=O)O)NC(=O)[C@H](CO)NC(=O)[C@@H](NC(=O)[C@](C)(Cc1ccccc1)NC(=O)[C@H](CO)NC(=O)CNC(=O)[C@H](CCC(N)=O)NC(=O)[C@](C)(CO)NC(=O)[C@@H](N)Cc1c[nH]cn1)[C@@H](C)O)C(C)C)[C@@H](C)CC)C(=O)N[C@@H](C)C(=O)N[C@@H](C)C(=O)N[C@@H](CCC(N)=O)C(=O)N[C@@H](CC(=O)O)C(=O)N[C@@](C)(Cc1ccccc1)C(=O)N[C@H](C(=O)N[C@@H](CCC(N)=O)C(=O)NC(C)(C)C(=O)N[C@H](C(=O)N[C@H](C(=O)N[C@@H](CC(N)=O)C(=O)N[C@H](C(N)=O)[C@@H](C)O)[C@@H](C)CC)[C@@H](C)CC)C(C)C)C(=O)O)C(=O)O [Peptide 130] (H-H[αMeS]QGS[αMeF]TSDVSKILDSK([PEG2-PEG2-γGlu-γGlu-Stearoyl])AAQD[αMeF]VQ[Aib]IINT-NH2; N-terminus assumed)
17.8 | 68.9 | – | CCCCCCCCCCCCCCCC(=O)N[C@@H](CCC(=O)N[C@@H](CCC(=O)NCCOCCOCCC(=O)NCCOCCOCCC(=O)NCCCC[C@H](NC(=O)[C@H](CO)NC(=O)[C@H](CC(=O)O)NC(=O)[C@H](CC(C)C)NC(=O)[C@@H](NC(=O)[C@H](CCCCN)NC(=O)[C@H](CO)NC(=O)[C@@H](NC(=O)[C@H](CC(=O)O)NC(=O)[C@H](CO)NC(=O)[C@@H](NC(=O)[C@](C)(Cc1ccccc1)NC(=O)[C@H](CO)NC(=O)CNC(=O)[C@H](CCC(N)=O)NC(=O)[C@](C)(CO)NC(=O)[C@@H](N)Cc1c[nH]cn1)[C@@H](C)O)C(C)C)[C@@H](C)CC)C(=O)N[C@@H](C)C(=O)N[C@@H](C)C(=O)N[C@@H](CCC(N)=O)C(=O)N[C@@H](CC(=O)O)C(=O)N[C@@](C)(Cc1ccccc1)C(=O)N[C@H](C(=O)N[C@@H](CCC(N)=O)C(=O)NC(C)(C)C(=O)N[C@H](C(=O)N[C@H](C(=O)N[C@@H](CC(N)=O)C(=O)N[C@H](C(N)=O)[C@@H](C)O)[C@@H](C)CC)[C@@H](C)CC)C(C)C)C(=O)O)C(=O)O [Peptide 131] (H-H[αMeS]QGS[αMeF]TSDVSKILDSK([PEG2-PEG2-γGlu-γGlu-Palmitoyl])AAQD[αMeF]VQ[Aib]IINT-NH2; N-terminus assumed)
34.3 | 71.5 | – | CCCCCCCCCCCCCC(=O)N[C@@H](CCC(=O)N[C@@H](CCC(=O)NCCOCCOCCC(=O)NCCOCCOCCC(=O)NCCCC[C@H](NC(=O)[C@H](CO)NC(=O)[C@H](CC(=O)O)NC(=O)[C@H](CC(C)C)NC(=O)[C@@H](NC(=O)[C@H](CCCCN)NC(=O)[C@H](CO)NC(=O)[C@@H](NC(=O)[C@H](CC(=O)O)NC(=O)[C@H](CO)NC(=O)[C@@H](NC(=O)[C@](C)(Cc1ccccc1)NC(=O)[C@H](CO)NC(=O)CNC(=O)[C@H](CCC(N)=O)NC(=O)[C@](C)(CO)NC(=O)[C@@H](N)Cc1c[nH]cn1)[C@@H](C)O)C(C)C)[C@@H](C)CC)C(=O)N[C@@H](C)C(=O)N[C@@H](C)C(=O)N[C@@H](CCC(N)=O)C(=O)N[C@@H](CC(=O)O)C(=O)N[C@@](C)(Cc1ccccc1)C(=O)N[C@H](C(=O)N[C@@H](CCC(N)=O)C(=O)NC(C)(C)C(=O)N[C@H](C(=O)N[C@H](C(=O)N[C@@H](CC(N)=O)C(=O)N[C@H](C(N)=O)[C@@H](C)O)[C@@H](C)CC)[C@@H](C)CC)C(C)C)C(=O)O)C(=O)O [Peptide 132] (H-H[αMeS]QGS[αMeF]TSDVSKILDSK([PEG2-PEG2-γGlu-γGlu-Myristoyl])AAQD[αMeF]VQ[Aib]IINT-NH2; N-terminus assumed)
30 | 55.9 | 1.06 | CCCCCCCCCCCCCCCCCC(=O)N[C@@H](CCC(=O)NCCOCCOCCC(=O)NCCOCCOCCC(=O)NCCCC[C@H](NC(=O)[C@H](CO)NC(=O)[C@H](CC(=O)O)NC(=O)[C@H](CC(C)C)NC(=O)[C@@H](NC(=O)[C@H](CCCCN)NC(=O)[C@H](CO)NC(=O)[C@@H](NC(=O)[C@H](CC(=O)O)NC(=O)[C@H](CO)NC(=O)[C@@H](NC(=O)[C@](C)(Cc1ccccc1)NC(=O)[C@H](CO)NC(=O)CNC(=O)[C@H](CCC(N)=O)NC(=O)[C@](C)(CO)NC(=O)[C@@H](N)Cc1c[nH]cn1)[C@@H](C)O)C(C)C)[C@@H](C)CC)C(=O)N[C@@H](C)C(=O)N[C@@H](C)C(=O)N[C@@H](CCC(N)=O)C(=O)N[C@@H](CC(=O)O)C(=O)N[C@@](C)(Cc1ccccc1)C(=O)N[C@H](C(=O)N[C@@H](CCC(N)=O)C(=O)NC(C)(C)C(=O)N[C@H](C(=O)N[C@H](C(=O)N[C@@H](CC(N)=O)C(=O)N[C@H](C(N)=O)[C@@H](C)O)[C@@H](C)CC)[C@@H](C)CC)C(C)C)C(=O)O [Peptide 133] (H-H[αMeS]QGS[αMeF]TSDVSKILDSK([PEG2-PEG2-γGlu-Stearoyl])AAQD[αMeF]VQ[Aib]IINT-NH2; N-terminus assumed)
